Each structure is given as a SMILES string.

In one experiment the test system is HepG2. In words: inhibitory activity against secretion of lipoproteins apoB and apoA1 from human HepG2 cell lines. It counts as functional. Conditions: read-out: ED50 (the source's name).
Experiment [1] relates to Cricetinae gen. sp. In words: Percentage change in serum HDL cholesterol in male hamster after 3-day treatment at 15 mpk. Format: functional.
Experiment [2] addresses T1, Microsomal triglyceride transfer protein large subunit (Homo sapiens, UniProt P55157).
T1 sequence (P55157 whole entry): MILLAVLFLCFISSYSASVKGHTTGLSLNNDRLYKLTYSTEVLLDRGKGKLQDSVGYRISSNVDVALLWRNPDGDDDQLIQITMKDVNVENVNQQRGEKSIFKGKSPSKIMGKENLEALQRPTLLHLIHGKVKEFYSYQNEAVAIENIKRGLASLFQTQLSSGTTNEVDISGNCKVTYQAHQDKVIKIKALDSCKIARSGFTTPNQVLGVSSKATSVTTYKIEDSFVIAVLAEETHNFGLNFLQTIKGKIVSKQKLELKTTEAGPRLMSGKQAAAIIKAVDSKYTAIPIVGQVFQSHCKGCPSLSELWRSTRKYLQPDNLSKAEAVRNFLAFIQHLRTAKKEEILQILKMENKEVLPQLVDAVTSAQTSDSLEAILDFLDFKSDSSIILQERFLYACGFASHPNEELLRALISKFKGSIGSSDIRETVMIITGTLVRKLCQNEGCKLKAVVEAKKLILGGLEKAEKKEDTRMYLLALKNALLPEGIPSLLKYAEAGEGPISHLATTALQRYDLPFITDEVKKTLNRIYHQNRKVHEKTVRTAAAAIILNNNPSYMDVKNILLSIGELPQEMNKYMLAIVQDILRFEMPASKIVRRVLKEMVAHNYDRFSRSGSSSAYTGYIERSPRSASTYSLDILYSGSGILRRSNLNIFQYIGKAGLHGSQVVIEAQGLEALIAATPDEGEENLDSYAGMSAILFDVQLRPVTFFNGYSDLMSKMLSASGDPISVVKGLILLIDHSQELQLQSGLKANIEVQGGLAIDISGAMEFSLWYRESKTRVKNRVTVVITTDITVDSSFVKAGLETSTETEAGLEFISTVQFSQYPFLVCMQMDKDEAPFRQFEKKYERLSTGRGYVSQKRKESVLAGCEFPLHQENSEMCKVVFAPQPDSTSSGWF
In words: In vitro inhibitory concentration against human Microsomal triglyceride transfer protein. Format: functional.

Experiment [3] deals with Cricetinae gen. sp. In words: Concentration required for change in serum HDL cholesterol in male hamster after 3-day treatment. Format: functional, Cricetulus griseus. Conditions: 72 h.
The species entered for another experiment is Mesocricetus auratus. The experiment in a line: Percentage change in serum HDL cholesterol in male hamster after 3-day treatment at 30 mpk.
Experiment [4] has as its target T1, Microsomal triglyceride transfer protein large subunit. In words: In vitro inhibition concentration required against triglyceride transfer of human Microsomal triglyceride transfer protein. As to conditions: read-out: I50. It counts as functional.
Experiment [5] deals with Cricetinae gen. sp. In words: Percentage change in serum HDL cholesterol in male hamster after 3-day treatment at 20 mpk. Format: functional, Cricetulus griseus.

Consider `O=C(N[C@H]1CC[N@+]([O-])(CCCCC2(C(=O)NCC(F)(F)F)c3ccccc3-c3ccccc32)CC1)c1ccccc1-c1ccc(C(F)(F)F)cc1`, for which the EC50 in the experiment with HepG2 (Homo sapiens, HepG2) stood at 0.9 nM. Besides, in the experiment on Cricetinae gen. sp. [1], the Activity is reported as -77%. The compound further had an IC50 in experiment [2] of 5 nM.
As usually defined, the ED50 is the dose at which the effect has come halfway, by size or by number of responders. Read a low ED50 as an effect at a small dose. In the experiment with Cricetinae gen. sp. [3], `O=C(NC1COP(=O)(CCCCC2(C(=O)NCC(F)(F)F)c3ccccc3-c3ccccc32)OC1)c1ccccc1-c1nc2ccccc2s1` (stereo not drawn) showed an ED50 of 4 mg/kg. In addition, the EC50 in the experiment with HepG2 (Homo sapiens, HepG2) stood at 7.5 nM. The Activity in the experiment on Cricetinae gen. sp. [1] is given as -76%. The IC50 in experiment [2] came to 9 nM.
Take `O=C(NC1COP(=O)(CCCCC2(C(=O)NCC(F)(F)F)c3ccccc3-c3ccccc32)OC1)c1ccccc1N1CCOCC1` (stereo not drawn): the Activity in the experiment on Cricetinae gen. sp. [1] is reported as -3%. In experiment [2], this compound had an IC50 of 12 nM.
Turning to `O=C(NC1COP(=O)(CCCCC2(C(=O)NCC(F)(F)F)c3ccccc3-c3ccccc32)OC1)OCc1ccccc1` (stereo not drawn), the EC50 with HepG2 (Homo sapiens, HepG2) stood at 40 nM. Also, the IC50 in experiment [2] came to 14 nM.
With `CCCCOP(=O)(CCCCC1(C(=O)NCC(F)(F)F)c2ccccc2-c2ccccc21)OCCCC`, the Activity in the experiment filed under Mesocricetus auratus is listed as -5%. Also, the EC50 with HepG2 (Homo sapiens, HepG2) came out at 7 nM. Also, the IC50 in experiment [2] is 22 nM.
On to `O=C(NC1COP(=O)(CCCCC2(C(=O)NCC(F)(F)F)c3ccccc3-c3ccccc32)OC1)OCc1ccccc1` (cis isomer), for which the IC50 in experiment [4] was 210 nM.
For `O=C(NC1COP(=O)(CCCCC2(C(=O)NCC(F)(F)F)c3ccccc3-c3ccccc32)OC1)c1ccccc1-c1ccc(C(F)(F)F)cc1` (cis isomer), the EC50 in the experiment with HepG2 came to 18 nM. Besides, the Activity in the experiment with Cricetinae gen. sp. [5] is -4%. In experiment [2], the IC50 is 44 nM.
For the compound `O=C(NC1COP(=O)(CCCCC2(C(=O)NCC(F)(F)F)c3ccccc3-c3ccccc32)OC1)c1ccccc1-c1ccc(C(F)(F)F)cc1` (stereo in doubt; 3a), the Activity in the experiment filed under Mesocricetus auratus is -73%. The compound also yielded an ED50 in the experiment with Cricetinae gen. sp. [3] of 3.3 mg/kg. In addition, in the experiment with HepG2, the EC50 was 0.65 nM. The compound also displayed an IC50 in experiment [2] of 7 nM.
Regarding `O=C(NC1COP(=O)(CCCCC2(C(=O)NCC(F)(F)F)c3ccccc3-c3ccccc32)OC1)c1ccccc1-c1ccccn1` (trans isomer), the EC50 in the experiment on HepG2 (Homo sapiens, HepG2) came out at 79 nM. In addition, the Activity in the experiment on Cricetinae gen. sp. [1] is -19%. In addition, in experiment [2], the IC50 was under 10 nM.
For `O=C(NC1COP(=O)(CCCCC2(C(=O)NCC(F)(F)F)c3ccccc3-c3ccccc32)OC1)c1ccccc1` (trans isomer) the same measures were 23 nM, -12% and 11 nM.
For the compound `O=C(NC1COP(=O)(CCCCC2(C(=O)NCC(F)(F)F)c3ccccc3-c3ccccc32)OC1)c1ccccc1-c1nc2ccccc2o1` (trans isomer), in the experiment listed under Mesocricetus auratus, the Activity is given as -13%. The IC50 in experiment [2] stood at 3 nM.
Turning to `O=C(NC1CCN(CCCCC2(C(=O)NCC(F)(F)F)c3ccccc3-c3ccccc32)CC1)c1ccccc1-c1ccc(C(F)(F)F)cc1` [LOMITAPIDE], in the experiment listed under Mesocricetus auratus, the Activity is -92%. The compound further showed an ED50 in the experiment with Cricetinae gen. sp. [3] of 2 mg/kg. Further, the EC50 in the experiment with HepG2 (Homo sapiens, HepG2) stood at 0.8 nM.

For the origin of these results see ChEMBL document CHEMBL1137891, “5-Carboxamido-1,3,2-dioxaphosphorinanes, potent inhibitors of MTP” (Bioorg Med Chem Lett, 2004).
